Patent US7521432B2, “Compositions and methods for identifying agents which regulate chromosomal stability, gene activation and aging” (priority 2000, dated 2009)
Read-outs that look alike come from different tables or passages of the source.

Legend:
HST2 [1] = target: T1, HST2 (Saccharomyces cerevisiae, UniProt P53686); assay: HST2 steady-state deacetylation reactions, substrate saturation curves (HPLC); format: biochemical, yeast
Source text: Materials. [^3H]Acetyl-CoA (1.88 Ci/mmol) and Na-[^3H]-acetate (100,000 cpm/nmol) was from NEN Life Sciences Products. Nicotinamide, ADP-ribose, and nicotinamide adenine dinucleotide (NAD) were purchased from Sigma Chemical Company. Histone H3 peptide, […] and the Lysine 14 acetylated H3 peptide (AcLys-14), corresponding to the 20 amino-terminal residues of human histone H3 was synthesized by the Protein Chemistry Core Lab at Baylor College of Medicine. Histidine tagged full length HST2 was recombinantly expressed and purified from Escherichia coli BL21DE3 bacteria using a T7 polymerase-based expression. […] HST2 eluted at 200 mM imidazole and was determined to be >95% pure by scanning densitometry of commassie-stained SDS-PAGE. […] The peaks of absorbance at 214/260 nm were collected and subjected to mass spectral analysis. [^3H]-acetate was detected by liquid scintillation counting. […]
Typical HST2 steady-state reactions to monitor deacetylation of AcLys-14 H3 peptide or nicotinamide formation were carried out at 37° C. in 50 mM Tris, pH 7.5 buffer. Rates of product formation were determined at various concentrations of AcLys-14 H3 peptide (5-300 μM) and NAD^+ (5-600 μM). During the linear portion of the initial velocity, the reactions were quenched with TFA to 1% and product formation was monitored by the HPLC analysis described above. […]

[2] = tested on: poly(ADP-ribosyl)transferases and SIR2 enzymes; conditions: poly(ADP-ribosyl)transferases and SIR2 enzymes exhibit similar values; read-out: Km values for NAD^+; cited from earlier work
SIR2 family of enzymes = target: T2, SIR2 family of enzymes (Saccharomyces cerevisiae, UniProt P53686); assay: HST2 steady-state reactions with NGD as alternative substrate to NAD; format: biochemical
T2 construct: Histidine tagged full length HST2 was recombinantly expressed and purified from Escherichia coli BL21DE3 bacteria; Histidine tag; made in house; host or cells: Escherichia coli BL21DE3
Source text: The details of the reaction conditions are as described in the materials and methods section. This enzymatic process may be used to advantage to generate novel O-acetyl-nucleotide analogs. These analogs may be used in the development of inhibitors for SIR2 and SIR homologs, or for the proteins/enzymes that normally bind/utilize O-acetyl-ADP ribose. More importantly, these enzyme-derived nucleotide analogs may serve as potent therapeutics for cancer and aging, releasing the block for transcriptionally-silenced genes that have been inappropriately silenced during tumorigenesis and aging, as discussed earlier.
Typical HST2 steady-state reactions to monitor deacetylation of AcLys-14 H3 peptide or nicotinamide formation with nicotinamide guanine dinucleotide (NGD) as an alternative substrate to NAD were carried out at various concentrations of AcLys-14 H3 peptide (5-100 μM) and NGD (10-400 μM). During the linear portion of the initial velocity, the reactions were monitored by reverse phase HPLC analysis on a Beckman Ultrasphere column (4.6 mm×15 cm). Samples were injected in 0.05% trifluoroacetic acid (TFA)/H2O for 1 min before a linear gradient of 0-40% acetontrile in 1-41 min.

HST2 [3] = target: T1, HST2; assay: Rapid-reaction single turnover quench-flow analysis; format: biochemical, yeast; conditions: HST2, excess NAD^+, sub-stoichiometric [^3H]-AcLys14 H3, 22±3° C., pH 7.5, single exponential fit
Source text: FIGS. 5A-5C are a series of graphs showing that acetate is not a primary product of HST2-catalyzed histone/protein deacetylation. H3 peptide was stoichiometrically acetylated on Lys-14 by the histone acetyltransferase P/CAF and using [^3H]-AcCoA. Monoacetylated [^3H]-AcLys-14 H3 peptide was then purified by HPLC (FIG. 5A) and utilized as a substrate in the HST2 deacetylation reactions (FIG. 5B). Upon complete consumption of [^3H]-AcLys-14 H3 by HST2, all of the original [^3H] from H3 peptide was converted to a labeled product that eluted much later than authentic acetate. Conditions: 375 nM HST2, 175 μM NAD^+, 5 μM [^3H]-Lys14 AcH3, 1 mM DTT, for 1 min at 37° C. prior to quenching with TFA to a final concentration of 1%. FIG. 5C: Single turnover rapid quench-flow analysis. […] Quantification of [^3H]-AcLys14 H3 peptide (diamonds) and the [^3H]-acetate-adduct (circles) was accomplished by liquid scintillation counting of these species separated using reverse phase HPLC. […]
P/CAF [^3H]-monoacetylation of H3 peptide. […] Every mass spectrum was recorded as the sum of 20 consecutive spectra, each produced by a single pulse of photons. […] The amount of [^3H]-AcLys14 H3 peptide and [^3H]-O-acetyl ADP ribose was determined by liquid scintillation counting of these species separated on reverse phase HPLC. […]

T1 sequence (P53686 whole entry): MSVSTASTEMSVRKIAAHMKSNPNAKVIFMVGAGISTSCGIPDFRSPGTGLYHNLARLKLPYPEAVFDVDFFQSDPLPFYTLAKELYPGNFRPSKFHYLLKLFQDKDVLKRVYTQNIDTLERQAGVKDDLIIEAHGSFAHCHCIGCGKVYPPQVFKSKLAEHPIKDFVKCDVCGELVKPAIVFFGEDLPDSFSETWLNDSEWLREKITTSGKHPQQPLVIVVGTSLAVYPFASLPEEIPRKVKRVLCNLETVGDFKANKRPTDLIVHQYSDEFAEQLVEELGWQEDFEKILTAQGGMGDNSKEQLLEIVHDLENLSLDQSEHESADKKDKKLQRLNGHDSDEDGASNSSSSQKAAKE
T2 sequence (P53686 whole entry): as above

Question: Which results are given for `NC(=O)c1ccc[n+]([C@@H]2O[C@H](COP(=O)([O-])OP(=O)(O)OC[C@H]3O[C@@H](n4cnc5c(N)ncnc54)[C@H](O)[C@@H]3O)[C@@H](O)[C@H]2O)c1` [NAD^+, nicotinamide adenine dinucleotide]?
Answer: Km (HST2 [1]; 37° C., 50 mM Tris pH 7.5, read-out: Km for NAD^+): 70 µM; Km [2]: 50 to 70 µM

Question: Which “ability to serve as substrate, generating O-acetyl-NDP ribose product” value (SIR2 family of enzymes) does the source give for `NC(=O)c1ccc[n+]([C@@H]2O[C@H](COP(=O)([O-])OP(=O)(O)OC[C@H]3O[C@@H](n4cnc5c(=O)[nH]c(N)nc54)[C@H](O)[C@@H]3O)[C@@H](O)[C@H]2O)c1` [NGD, nicotinamide guanine dinucleotide] here?
Answer: Its value is “can serve as substrates for the SIR2 family of enzymes”.

Question: Which Km (HST2 [1]; estimated, read-out: Km for AcLys-14 H3) does the source give for “ARTKQTARKSTGG(AcK)APRKQL [AcLys-14 H3, reference compound]” here?
Answer: Its Km is < 0.5 µM.

Question: What about the “rate constant of AcLys-14 H3 peptide deacetylation (substrate consumption)” value (HST2 [3]) of the same molecule?
Answer: The value was 2.0 ± 0.1 s⁻¹.
